Assay results from patent US20090048190A1, “Antiviral activity and resolution of 2-hydroxymethyl-5(5-fluorocytosin-1-yl)-1,3-oxathiolane” (priority 1990, published 2009).
Where two headings read alike, the source gives them in different places.

Experiments:
HepG2 cells = settings: 10 μM [3H]-(±)-FTC
FIV = assay: Antiretroviral activity in different cell systems, FIV; assay type: cell-based; settings: CrFK (61E)
human PBM cells = settings: 10 μM radiolabeled FTC
[1] = tested on: uninfected human PBM cells
Source text: The cells were counted after 6 days using a hemacytometer and the trypan blue exclusion method, as described by Schinazi et al., Antimicrobial Agents and Chemotherapy, 22(3), 499 (1982).

HIV-2 = assay: Antiretroviral activity in different cell systems, HIV-2; assay type: cell-based; settings: PBMC (ROD2)
Method: Cell lines were obtained from either human donors, AIDS Research and Reference Reagent Program, NIH, Rockville, Md., ATCC, or the Red Cross. The CEM thymidine kinase deficient cells were prepared by sequential passage of CEM cells in the presence of 5-bromo-2′-deoxyuridine.

HIV-1 (strain LAV) = assay type: cell-based
Source text: It is often desirable to screen a number of racemic mixtures of nucleosides as a preliminary step to determine which warrant further resolution into enantiomerically enriched components and further evaluation of antiviral activity. The ability of nucleosides to inhibit HIV can be measured by various experimental techniques. The technique used herein, and described in detail below, measures the inhibition of viral replication in phytohemagglutinin (PHA) stimulated human peripheral blood mononuclear (PBM) cells infected with HIV-1 (strain LAV). The amount of virus produced is determined by measuring the virus-coded reverse transcriptase enzyme. The amount of enzyme produced is proportional to the amount of virus produced.
A. Three-day-old phytohemagglutinin-stimulated PBM cells (10^6 cells/ml) from hepatitis B and HIV-1 seronegative healthy donors were infected with HIV-1 (strain LAV) at a concentration of about 100 times the 50% tissue culture infectious dose (TICD 50) per ml and cultured in the presence and absence of various concentrations of antiviral compounds.
B. Approximately one hour after infection, the medium, with the compound to be tested (2 times the final concentration in medium) or without compound, was added to the flasks (5 ml; final volume 10 ml). AZT was used as a positive control.
C. The cells were exposed to the virus (about 2×10^5 dpm/ml, as determined by reverse transcriptase assay) and then placed in a CO2 incubator. HIV-1 (strain LAV) was obtained from the Center for Disease Control, Atlanta, Ga. The methods used for culturing the PBM cells, harvesting the virus and determining the reverse transcriptase activity were those described by McDougal et al. (J. Immun. Meth. 76, 171-183, 1985) and Spira et al. (J. Clin. Meth. 25, 97-99, 1987), except that fungizone was not included in the medium (see Schinazi, et al., Antimicrob. Agents Chemother. 32, 1784-1787 (1988); Id., 34:1061-1067 (1990)).
D. On day 6, the cells and supernatant were transferred to a 15 ml tube and centrifuged at about 900 g for 10 minutes. Five ml of supernatant were removed and the virus was concentrated by centrifugation at 40,000 rpm for 30 minutes (Beckman 70.1 Ti rotor). The solubilized virus pellet was processed for determination of the levels of reverse transcriptase. Results are expressed in dpm/ml of sampled supernatant. Virus from smaller volumes of supernatant (1 ml) can also be concentrated by centrifugation prior to solubilization and determination of reverse transcriptase levels.

HIV = assay: microbe, parasite or virus in culture; assay type: cell-based; settings: MT4 system
[2] = CSF/serum ratio in rhesus monkeys; assay type: in vivo; settings: 33.3 mg/kg, one hour after administration
[3] = Pharmacokinetics after intravenous administration to rats

## Nc1nc(=O)n([C@@H]2CS[C@H](CO)O2)cc1F (racemic) [(±)-FTC, (±)-β-D,L-2-hydroxymethyl-5-(5-fluorocytosin-1-yl)-1,3-oxathiolane]
HepG2 cells
  uptake by HepG2 cells: taken up by HepG2 cells in large amounts
CEM cells
  toxicity: > 100 µM
FIV
  EC50: ≤ 1 µM
I.V., 33.3 mg/kg, individual monkeys (RUh, RMi, RJd)
  VSS: 2.00 L/kg
P.O., 33.3 mg/kg, individual monkeys (RUh, RMi, RJd)
  F (bioavailability): 80%
Rhesus monkeys, mean of oral and I.V. administration
  plasma terminal half life: approximately 1.34±0.18
Vero cells
  toxicity: > 100 µM
Human PBM cells
  uptake in human lymphocytes: readily taken up
[1]
  IC50: > 100 µM
HIV-2
  EC50: 0.0038 µM
Other cell lines
  nontoxic at concentrations up to: up to 200 μM
HIV-1 (strain LAV); 0.0001 μM
  % Inhibition (Corrected): 26.6%
  DPM/ml: 73,755 DPM/ml
HIV-1 (strain LAV); 0.005 μM
  % Inhibition (Corrected): 16.3%
  DPM/ml: 83,005 DPM/ml
HIV-1 (strain LAV); 0.01 μM
  % Inhibition (Corrected): 41.3%
  DPM/ml: 60,465 DPM/ml
HIV-1 (strain LAV); 0.05 μM
  % Inhibition (Corrected): 70.4%
  DPM/ml: 34,120 DPM/ml
HIV-1 (strain LAV); 0.1 μM
  % Inhibition (Corrected): 92.4%
  DPM/ml: 14,160 DPM/ml
HIV-1 (strain LAV); 0.5 μM
  % Inhibition (Corrected): 88.1%
  DPM/ml: 18,095 DPM/ml
HIV-1 (strain LAV); 1 μM
  % Inhibition (Corrected): 99.7%
  DPM/ml: 7,555 DPM/ml
HIV-1 (strain LAV); 5 μM
  % Inhibition (Corrected): 99.3%
  DPM/ml: 7,940 DPM/ml
HIV-1 (strain LAV); 10 μM
  % Inhibition (Corrected): 101.7%
  DPM/ml: 5,810 DPM/ml
HIV-1 (strain LAV); PBM cells, read-out: activity in PBM cells
  EC50: ~0.01 µM
HIV-1 (strain LAV); enantiomers resolved by HPLC (Example 4), Table 4, read-out: EC50
  EC50: 0.018 µM
HIV-1 (strain LAV); enantiomers resolved by method of Example 3, FIG. 6, read-out: EC50
  EC50: 0.017 µM
HIV-1 (strain LAV); human PBM cells, HIV-1 strain LAV, Table 3, read-out: Antiviral EC50
  EC50: 0.01 µM
HIV
  IC50: 0.52 µM
[2]
  ability to cross the blood-brain barrier: significant amount of active compound passes through the blood-brain barrier
[3]; 10 mg/kg
  CLT: 16.5 mL/min/kg
[3]; 50 mg/kg
  CLT: 14.6 mL/min/kg
  MRT: 48 min
[3]; 100 mg/kg
  CLT: 13.8 mL/min/kg
